Patent US11008290B2, “Halogenated quinoline derivatives as antimicrobial agents” (University of Florida Research Foundation, Incorporated, priority 2015, dated 2021)
In brackets after ≈: the same amount, converted by molar mass. Like-named read-outs stand apart in the source and are kept apart here.

Assays:
[1] = system: methicillin-resistant Staphylococcus aureus-2 (MRSA-2; clinical isolate); experiment: Minimum inhibitory concentration (MIC) susceptibility assay, broth microdilution; type: cell-based
Description: (§1) The minimum inhibitory concentration (MIC) for each compound was determined by the broth microdilution method as recommended by the Clinical and Laboratory Standards Institute (CLSI). In a 96-well plate, eleven two-fold serial dilutions of each compound were made in a final volume of 100 μL Luria Broth. Each well was inoculated with ˜10^5 bacterial cells at the initial time of incubation, prepared from a fresh log phase culture (OD600 of 0.5 to 1.0 depending on bacterial strain). […] The concentration range tested for each compound during this study was 0.10 to 100 μM. DMSO served as the vehicle and negative control in each microdilution MIC assay. DMSO was serially diluted with a top concentration of 1% v/v. Bacterial strains used: methicillin-resistant Staphylococcus aureus-2 (MRSA-2; clinical isolate from Shands Hospital in Gainesville, Fla.), methicillin-resistant Staphylococcus epidermidis (MRSE; ATCC 35984), vancomycin-resistant Enterococcus faecium (VRE, ATCC 700221).

[2] = system: vancomycin-resistant Enterococcus faecium (VRE, ATCC 700221); experiment: as above; type: cell-based; conditions: read-out: VRE MIC
Description: as §1

[3] = system: MRSA BAA-1707; experiment: Calgary Biofilm Device (CBD) MBC/MBEC determination; type: cell-based, Staphylococcus aureus; conditions: for MBC: Staphylococcus aureus, read-out: MRSA BAA-1707 MBC; for MRSA BAA-1707 MBEC: biofilm eradication, second value of cell
Description: (§2) Biofilm eradication experiments were performed using the Calgary Biofilm Device to determine MBC/MBEC values for various compounds of interest (Innovotech, product code: 19111). The Calgary device (96-well plate with lid containing 96 total pegs to establish biofilms; 1 peg/well) was inoculated with 125 μL of a mid-log phase culture diluted 1,000-fold in tryptic soy broth with 0.5% glucose (TSBG) to establish bacterial biofilms after incubation at 37° C. for 24 hours. The lid of the Calgary device was then removed, washed and transferred to another 96-well plate containing 2-fold serial dilutions of the test compounds (the “challenge plate”). The total volume of media with compound in each well in the challenge plate was 150 μL. The Calgary device was then incubated at 37° C. for 24 hours. The lid was then removed from the challenge plate and MBC/MBEC values were determined using different final assays. […] The MBC values were determined as the concentration giving a lack of visible bacterial growth (e.g., turbidity). For determination of MBEC values, the Calgary device lid (with attached pegs/treated biofilms) was transferred to a new 96-well plate containing 150 μL of fresh TSBG media in each well and incubated for 24 hours at 37° C. to allow viable biofilms to grow and disperse resulting in turbidity after the incubation period. […] In select experiments, treated pegs from the Calgary device were removed from lead biofilm eradicators after final incubation, sonicated for 30 minutes in PBS and plated out to determine biofilm cell killing (e.g., colony forming unit per milliliter, CFU/mL).

[4] = system: MRSA-2 planktonic cells and biofilms; experiment: as above; type: cell-based, Staphylococcus aureus; conditions: CBD; for MBC: planktonic killing, first value of MBC/MBEC cell
Description: as §2

[5] = system: MRSE (ATCC 35984) planktonic cells and biofilms; experiment: as above; type: cell-based, Staphylococcus epidermidis; conditions: Staphylococcus epidermidis
Description: as §2

[6] = system: VRE (ATCC 700221) planktonic cells and biofilms; experiment: as above; type: cell-based, Enterococcus faecium; conditions: Enterococcus
Description: as §2

[7] = system: human red blood cells; experiment: Hemolysis assay; type: cell-based
Description: Freshly drawn human red blood cells (hRBC with ethylenediaminetetraacetic acid (EDTA) as an anticoagulant) were washed with Tris-buffered saline (0.01M Tris-base, 0.155M sodium chloride (NaCl), pH 7.2) and centrifuged for 5 minutes at 3500 rpm. The washing was repeated three times with the buffer. In 96-well plate, the test compounds were added to the buffer. […] The plate was then incubated for 1 hour at 37° C. After incubation, the plate is centrifuged for 5 minutes at 3500 rpm. Then 80 μL of the supernatant were transferred to another 96-well plate and the Optical Density (OD) was read at 405 nm. […] The percent of hemolysis was calculated as (OD405 of the compound-OD405 DMSO)/(OD405 Triton X-OD405 buffer).

[8] = system: methicillin-resistant Staphylococcus epidermidis (MRSE; ATCC 35984); experiment: Minimum inhibitory concentration (MIC) susceptibility assay, broth microdilution; type: cell-based; conditions: read-out: MRSE MIC
Description: as §1

[9] = system: MRSA-2; experiment: Mechanistic investigations with metal(II)-cations (MIC assay with 200 μM metal salt); type: cell-based, Staphylococcus aureus; conditions: MRSA-2; for Fold Δ (MIC w/Cu^2+) / Fold Δ (MIC w/Fe^2+) / Fold Δ (MIC w/Zn^2+): change in antibacterial activity according to MIC values; for MIC: Staphylococcus aureus
Description: as §1

[10] = Staphylococcus, MRSA, Table 3, at least three independent experiments, read-out: MRSA-2 MIC
[11] = Table 4, planktonic killing, CBD, first value of cell
[12] = Staphylococcus aureus, MRSA, Table 3, read-out: MRSA-2 MBC
[13] = Table 3, planktonic killing, CBD, first value of cell, read-out: MRSE MBC
[14] = Table 3, planktonic killing, CBD, first value of cell, footnote c = lowest concentration tested, read-out: VRE MBC
[15] = Staphylococcus, MRSA, read-out: MIC
[16] = Staphylococcus epidermidis, Table 3
[17] = 200 μM ammonium iron (II) sulfate hexahydrate, read-out: MIC w/Fe^2+
[18] = 200 μM copper (II) sulfate, read-out: MIC w/Cu^2+
[19] = 200 μM zinc (II) chloride, read-out: MIC w/Zn^2+
[20] = Staphylococcus epidermidis, Table 2, ATCC 35984
[21] = Table 2, read-out: MRSA-2 Clinical Isolate MBC
[22] = Staphylococcus, MRSA, Table 2, 2 to 6 independent experiments, read-out: MRSA-2 MIC
[23] = Table 2, human red blood cells, 1 hour at 37° C.

Structure (SMILES)	MIC [1, 10]	MIC ([2]; Table 3)	MBC [3, 11]	MBC [4, 12]	MBC [5, 13]	MBC [6, 14]	% Haemolysis at 200 μM ([7]; human, 1 h, pH 7.2)	MIC [1, 15]	MIC [8, 16]	MIC [8, 20]	MRSA BAA-1707 MBEC ([3]; Table 4, CBD)	also measured
CCCc1ccc2c(Br)cc(Br)c(O)c2n1 [A-HQ-3]	0.78 µM (≈ 0.269 µg/mL)	0.78 µM (≈ 0.269 µg/mL)	31.3 µM (≈ 10.8 µg/mL)	125 µM (≈ 43.1 µg/mL)	9.38 µM (≈ 3.24 µg/mL)	2 µM (≈ 0.69 µg/mL)	≤1%	–	–	–	–	–
CCCc1ccc2c(I)cc(I)c(O)c2n1 [A-HQ-4]	1.56 µM (≈ 0.685 µg/mL)	0.39 µM (≈ 0.171 µg/mL)	–	188 µM (≈ 82.5 µg/mL)	125 µM (≈ 54.9 µg/mL)	7.8 µM (≈ 3.42 µg/mL)	≤1%	1.56 µM (≈ 0.685 µg/mL)	1.17 µM (≈ 0.514 µg/mL)	–	–	Fold Δ (MIC w/Cu^2+) [9]: +8 fold; Fold Δ (MIC w/Fe^2+) [9]: +64 fold; Fold Δ (MIC w/Zn^2+) [9]: −8 fold; MIC [9, 17]: > 100 µM; MIC [9, 18]: 12.5 µM; MIC [9, 19]: 0.2 µM
CC(C)Cc1ccc2c(Br)cc(Br)c(O)c2n1 [A-HQ-5]	0.78 µM (≈ 0.28 µg/mL)	100 µM (≈ 35.9 µg/mL)	31.3 µM (≈ 11.2 µg/mL)	–	–	–	12.3%	–	–	–	–	–
Oc1c(Br)cc(Br)c2ccc(CCc3ccc(Br)cc3)nc12 [A-HQ-7]	9.38 µM (≈ 4.56 µg/mL)	2.35 µM (≈ 1.14 µg/mL)	–	375 µM (≈ 182 µg/mL)	250 µM (≈ 122 µg/mL)	9.38 µM (≈ 4.56 µg/mL)	≤1%	9.38 µM (≈ 4.56 µg/mL)	1.17 µM (≈ 0.569 µg/mL)	–	–	Fold Δ (MIC w/Cu^2+) [9]: +11 fold; Fold Δ (MIC w/Fe^2+) [9]: +11 fold; Fold Δ (MIC w/Zn^2+) [9]: −8 fold; MIC [9, 17]: > 100 µM; MIC [9, 18]: > 100 µM; MIC [9, 19]: 1.17 µM
CCCCCCCCCC(=O)N[C@@H](Cc1c[nH]c2ccccc12)C(=O)N[C@H](CC(N)=O)C(=O)N[C@@H](CC(=O)O)C(=O)N[C@@H]1C(=O)NCC(=O)N[C@@H](CCCN)C(=O)N[C@@H](CC(=O)O)C(=O)N[C@H](C)C(=O)N[C@@H](CC(=O)O)C(=O)NCC(=O)N[C@H](CO)C(=O)N[C@@H]([C@H](C)CC(=O)O)C(=O)N[C@@H](CC(=O)c2ccccc2N)C(=O)O[C@@H]1C [Daptomycin, reference compound]	–	–	125 µM (≈ 203 µg/mL)	62.5 µM (≈ 101 µg/mL)	–	–	1.7%	–	–	12.5 µM (≈ 20.3 µg/mL)	unable to eradicate	MIC ([8]; Table 3): 12.5 µM (≈ 20.3 µg/mL); MBC [4, 21]: 62.5 µM (≈ 101 µg/mL)
Oc1c(Br)cc(Br)c2ccc(CNc3ccccc3)nc12 [HQ-3]	–	–	62.5 µM (≈ 25.5 µg/mL)	–	–	–	–	1.13 µM (≈ 0.461 µg/mL)	–	0.15 µM (≈ 0.0612 µg/mL)	–	MIC [1, 22]: 0.78 µM (≈ 0.318 µg/mL); MIC ([8]; Staphylococcus epidermidis, 18 h, Table 2, ATCC 35984): 0.15 to 0.3 µM (≈ 0.0612 to 0.122 µg/mL); MIC ([2]; 18 h, Table 2, ATCC 700221): 0.39 to 0.78 µM (≈ 0.159 to 0.318 µg/mL); MIC ([2]; Table 2, ATCC 700221): 0.78 µM (≈ 0.318 µg/mL); MBC ([4]; Staphylococcus aureus, MRSA, Table 2, read-out: MRSA-2 Clinical Isolate MBC): 125 µM (≈ 51 µg/mL); MRSA-2 MBEC ([4]; Table 3, biofilm eradication, second value of MBC/MBEC cell): equipotent biofilm eradication activities; MBC ([5]; Table 2, planktonic killing, CBD, first value of cell, read-out: MRSE ATCC 35984 MBC): 7.8 µM (≈ 3.18 µg/mL); MBC ([6]; Table 2, planktonic killing, CBD, first value of cell, read-out: VRE ATCC 700221 MBC): 7.8 µM (≈ 3.18 µg/mL)
CC(=O)NC[C@H]1CN(c2ccc(N3CCOCC3)c(F)c2)C(=O)O1 [Linezolid, reference compound]	–	3.13 µM (≈ 1.06 µg/mL)	31.3 µM (≈ 10.6 µg/mL)	–	–	–	–	–	–	3.13 µM (≈ 1.06 µg/mL)	unable to eradicate	MIC [1, 22]: 3.13 µM (≈ 1.06 µg/mL); MIC ([1]; Table 3, at least three independent experiments, read-out: MRSA-2 MIC): 3.13 µM (≈ 1.06 µg/mL); MIC ([8]; Table 3): 3.13 µM (≈ 1.06 µg/mL); MIC ([2]; Table 2, ATCC 700221): 3.13 µM (≈ 1.06 µg/mL); % Haemolysis at 200 μM [7, 23]: ≤1%; % Haemolysis at 200 μM ([7]; Table 3, human red blood cells): ≤1%
Oc1c(I)cc(I)c2ccc(CNc3ccc(Br)cc3)nc12 [RA-HQ-23]	25 µM (≈ 14.5 µg/mL)	25 µM (≈ 14.5 µg/mL)	–	> 1000 µM	125 µM (≈ 72.6 µg/mL)	31.3 µM (≈ 18.2 µg/mL)	3.3%	–	12.5 µM (≈ 7.26 µg/mL)	–	–	–
CN[C@H](CC(C)C)C(=O)N[C@H]1C(=O)N[C@@H](CC(N)=O)C(=O)N[C@H]2C(=O)N[C@H]3C(=O)N[C@H](C(=O)N[C@H](C(=O)O)c4cc(O)cc(O)c4-c4cc3ccc4O)[C@H](O)c3ccc(c(Cl)c3)Oc3cc2cc(c3O[C@@H]2O[C@H](CO)[C@@H](O)[C@H](O)[C@H]2O[C@H]2C[C@](C)(N)[C@H](O)[C@H](C)O2)Oc2ccc(cc2Cl)[C@H]1O [Vancomycin, reference compound]	–	>100 µM	–	–	–	–	–	–	–	–	unable to eradicate	MIC [2]: > 100 µM; MBC [3]: 5.9 µM (≈ 8.55 µg/mL); MBC ([4]; Staphylococcus aureus, MRSA, read-out: MRSA-2 Clinical Isolate MBC, Table 2): 3 to 62.5 µM (≈ 4.35 to 90.6 µg/mL); MBC ([4]; Staphylococcus aureus, MRSA, read-out: MRSA-2 MBC, Table 3): 3 µM (≈ 4.35 µg/mL); MBC [4, 21]: 3.0 µM (≈ 4.35 µg/mL); MBC ([5]; read-out: MRSE ATCC 35984 MBC): 3 µM (≈ 4.35 µg/mL); MBC ([5]; read-out: MRSE MBC): 3 µM (≈ 4.35 µg/mL); MBC ([6]; read-out: VRE ATCC 700221 MBC): > 200 µM; MBC ([6]; read-out: VRE MBC): > 200 µM; % Haemolysis at 200 μM [7, 23]: ≤1%; % Haemolysis at 200 μM ([7]; Table 3, human red blood cells): ≤1%
